Results published in ChEMBL document CHEMBL3301451, “MMV Malaria Box gametocyte functional viability assay screening”.

Experiments:
Assay type in all cases: functional
Design in all cases: concentration or dose not given beside the values
Plasmodium berghei = assay: MMV: P. berghei-infected blood was withdrawn from mice by cardiac pucture before being immediately added to ookinete culture medium containing test compounds. 26 hr later, GFP-positive ookinetes were identified and counted by automated microscopy. All compounds were tested in 4 independent experiments and data presented here is the mean.
Plasmodium falciparum [1] = assay: (§1) MMV: P. falciparum NF54 functionally mature Stage V gametocytes were incubated for 24 hr in the presence of the test compounds. Gamete formation was then triggered by addition of 2uM xantheurenic acid and temperature decrease to ~20C. Male gamete exflagellation was recorded and analysed by automated microscopy after 20 min. All compounds were tested in 4 independent experiments and data presented here is the mean.
Plasmodium falciparum [2] = assay: as §1, with “Female” for “Male”, “formation” for “exflagellation”, “24 hr later” for “and analysed”, “detection of surface labelling of female gametes with a Cy3-conjugated antibody reactive to Pfs25.” for “after 20 min.”; conditions: NF54, 24 h

Structure (SMILES) | inhibition (Plasmodium berghei) | inhibition (Plasmodium falciparum [1]) | inhibition (Plasmodium falciparum [2])
CCOC(=O)c1cnc2ccc(Cl)cc2c1NCCCN(C)C | -2.955% | -9.15% | -11.1%
O=C(Nc1ccc(Cl)cc1)N1CCN(c2ccc3nncn3n2)CC1 | 8.279% | 25.9% | -16.6%
CC1CCN(Cc2ccc(NC(=O)c3cc4ccc5cccnc5c4[nH]3)cc2)CC1 | -17.24% | 10.2% | -3.24%
COc1ccccc1N1C(=N)SC(=Cc2ccc(OCc3ccccc3F)cc2)C1=O | 33.34% | 12.8% | 10.4%
Cc1cc(C)c2c(c1)OCN(Cc1ccccc1Cl)C2 | -11.06% | 25.8% | -10%
COc1ccc(C=C2SC(Nc3ccc(F)cc3)=NC2=O)c(OC)c1 | 49.11% | 42.9% | -24.5%
CCCc1c(CC)c(=N)c2ccccc2n1C | -31.4% | -39.2% | -32.4%
Cc1cc(C)c2nc(N3CCC(C(=O)NCCCN4CCC(N5CCCCC5)CC4)CC3)sc2c1 | -9.223% | 8.94% | 21.7%
Br.Cc1ccc(C)c(-c2csc(Nc3ccc(C)c(C)c3)n2)c1 | -11.38% | 20.6% | -46.3%
CCN1CCCC1CNc1[nH]cnc2c3cc(Cl)ccc3nc1-2 (stereo not drawn) | -0.006896% | 18.2% | 3.48%
O=c1nc(C=Cc2ccc(Cl)cc2)oc2ccccc12 | 7% | 41% | -1.1%
CC1CCN(Cc2c(O)ccc3cc(-c4nc5ccccc5s4)c(=O)oc23)CC1 | 100% | -4.49% | -24.7%
COc1ccc(CN2CCN(Cc3ccccc3)CC2)c(O)c1 | -17.51% | -11.1% | -16.4%
CN1CCN(c2ccc(Nc3c4ccccc4nc4ccccc34)cc2)CC1 | 3.384% | 56.4% | -3.1%
COc1ccc(C2=C(c3ccc(OC)cc3)C3(c4ccccc4)C(=O)C2(c2ccccc2)C2C(=O)N(c4ccc(C)cc4)C(=O)C23)cc1 (stereo not drawn) | -21.97% | -9% | 7.88%
O=C(Nc1ccc(-c2nc3ccccc3[nH]2)cc1)c1ccc(Cl)c(Cl)c1 | -25.94% | 4.23% | -34.9%
Clc1ccc2[nH]c3c(NCCCN4CCOCC4)ncnc3c2c1 | -16.54% | 21.6% | -15.9%
CCC1(C)CC(CCNCc2ccccc2O)(c2ccc(C)cc2)CCO1 (stereo not drawn) | -38.74% | -6.89% | 7.59%
CCN1CCN(c2c(C(=O)c3ccccc3)cnc3cc(OC)c(OC)cc23)CC1 | -4.456% | -41.4% | -6.16%
C=C(C)CCC(C)N1CCC(N2CCC(C(=O)NCCc3ccccc3)CC2)CC1 (stereo not drawn) | -5.335% | 9.7% | -6.85%
CCCN(CCC)CC(O)COc1ccccc1C(=O)Nc1ccccc1 (stereo not drawn) | -27.28% | 0.885% | -10.5%
COc1cccc(-c2nn(C)c3sc(C(=O)NCCN4CCN(c5ccccc5F)CC4)cc23)c1 | 2.067% | 14.1% | -2.79%
c1ccc(/C2=N/c3ccccc3/N=C(/c3ccccc3)c3ccccc32)cc1 | 4.56% | 41.7% | 5.88%
Cl.Cn1c(=O)n(C)c2cc(CNCCNc3ccnc4cc(Cl)ccc34)ccc21 | -19.76% | -3.18% | -26.8%
COc1ccc(N2CCN(C(CNC(=O)CC(C)(C)C)c3ccc4c(c3)OCO4)CC2)cc1 (stereo not drawn) | -5.344% | 1.8% | -24.8%
Oc1ccc2ccccc2c1CNc1nc2ccccc2[nH]1 | -28.7% | 31.6% | -19.1%
